The source of these data is ChEMBL document CHEMBL4732068, “The discovery of novel antitrypanosomal 4-phenyl-6-(pyridin-3-yl)pyrimidines” (Eur J Med Chem, 2021).

The target of one data set is Cytochrome P450 2C19 (Homo sapiens, UniProt P33261). Put plainly: Inhibition of CYP2C19 in human liver microsomes by luminescence based P450-[…] assay. In kind it is ADME.
In data set [1] the target is T1, Protein deacetylase HDAC6 (Homo sapiens) (UniProt Q9UBN7).
T1 sequence (whole entry): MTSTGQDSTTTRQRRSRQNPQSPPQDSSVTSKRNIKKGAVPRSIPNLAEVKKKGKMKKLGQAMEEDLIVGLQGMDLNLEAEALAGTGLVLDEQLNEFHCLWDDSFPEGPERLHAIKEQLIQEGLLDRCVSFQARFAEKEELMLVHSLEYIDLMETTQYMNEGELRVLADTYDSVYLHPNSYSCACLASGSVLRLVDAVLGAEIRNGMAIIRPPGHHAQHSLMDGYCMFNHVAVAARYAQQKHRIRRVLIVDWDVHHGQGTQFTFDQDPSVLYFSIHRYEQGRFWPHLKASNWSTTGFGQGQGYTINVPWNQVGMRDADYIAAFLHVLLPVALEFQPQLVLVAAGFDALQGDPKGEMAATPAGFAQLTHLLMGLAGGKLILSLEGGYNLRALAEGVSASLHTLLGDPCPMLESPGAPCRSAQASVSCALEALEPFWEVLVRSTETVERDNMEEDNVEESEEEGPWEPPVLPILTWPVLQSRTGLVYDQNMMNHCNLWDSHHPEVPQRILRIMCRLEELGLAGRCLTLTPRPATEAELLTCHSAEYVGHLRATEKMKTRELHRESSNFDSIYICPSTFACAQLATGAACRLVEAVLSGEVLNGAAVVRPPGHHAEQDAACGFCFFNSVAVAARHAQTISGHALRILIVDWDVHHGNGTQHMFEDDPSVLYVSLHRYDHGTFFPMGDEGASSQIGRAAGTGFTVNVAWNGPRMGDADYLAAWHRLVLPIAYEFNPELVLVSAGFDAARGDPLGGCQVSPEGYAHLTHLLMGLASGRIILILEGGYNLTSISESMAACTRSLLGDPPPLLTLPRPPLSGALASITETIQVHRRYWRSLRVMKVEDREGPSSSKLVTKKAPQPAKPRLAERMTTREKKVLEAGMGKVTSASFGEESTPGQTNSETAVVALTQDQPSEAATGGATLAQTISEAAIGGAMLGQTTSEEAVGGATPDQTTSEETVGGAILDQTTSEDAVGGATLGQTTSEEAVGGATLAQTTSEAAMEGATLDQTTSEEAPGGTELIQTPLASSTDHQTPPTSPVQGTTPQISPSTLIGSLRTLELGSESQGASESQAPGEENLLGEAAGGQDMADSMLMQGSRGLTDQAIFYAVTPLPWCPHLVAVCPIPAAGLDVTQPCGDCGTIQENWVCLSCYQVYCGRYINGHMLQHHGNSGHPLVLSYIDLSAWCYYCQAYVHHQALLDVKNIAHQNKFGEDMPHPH
The experiment in a line: Inhibition of recombinant human HDAC6 by fluorescence based microplate reader analysis.

Data set [2] concerns the target Histone deacetylase 3 (Homo sapiens) (UniProt O15379). The experiment in a line: Inhibition of recombinant human HDAC3 by fluorescence based microplate reader analysis.
Data set [3] concerns the target Histone deacetylase 1 (Homo sapiens) (UniProt Q13547). The experiment in a line: Inhibition of recombinant human HDAC1 by fluorescence based microplate reader analysis.
In the next data set the target is T2, Cytochrome P450 1A2 (Homo sapiens, UniProt P05177).
T2 sequence (P05177 whole entry): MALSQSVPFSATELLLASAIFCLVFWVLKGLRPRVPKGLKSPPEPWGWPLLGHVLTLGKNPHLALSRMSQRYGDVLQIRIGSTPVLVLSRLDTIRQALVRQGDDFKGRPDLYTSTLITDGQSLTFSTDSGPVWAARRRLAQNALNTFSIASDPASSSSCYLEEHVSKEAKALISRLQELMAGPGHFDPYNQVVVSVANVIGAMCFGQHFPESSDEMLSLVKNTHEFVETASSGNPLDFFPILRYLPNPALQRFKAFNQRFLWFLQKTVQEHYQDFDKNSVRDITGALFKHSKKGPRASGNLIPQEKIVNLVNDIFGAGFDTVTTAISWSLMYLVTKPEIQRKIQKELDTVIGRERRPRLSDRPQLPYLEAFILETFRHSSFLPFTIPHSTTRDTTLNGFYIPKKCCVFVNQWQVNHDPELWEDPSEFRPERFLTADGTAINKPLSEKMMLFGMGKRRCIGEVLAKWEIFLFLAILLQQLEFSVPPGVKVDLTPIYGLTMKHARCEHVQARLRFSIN
Put plainly: Inhibition of CYP1A2 in human liver microsomes by luminescence based P450-[…] assay. In kind it is ADME.

Another data set concerns the target Cytochrome P450 2C9 (Homo sapiens, UniProt P11712). Put plainly: Inhibition of CYP2C9 in human liver microsomes by luminescence based P450-[…] assay.

Active and inactive are the calls of the source. The rule behind the calls is not given here.

Chain of Histone deacetylase 3 (Homo sapiens) (O15379 whole entry): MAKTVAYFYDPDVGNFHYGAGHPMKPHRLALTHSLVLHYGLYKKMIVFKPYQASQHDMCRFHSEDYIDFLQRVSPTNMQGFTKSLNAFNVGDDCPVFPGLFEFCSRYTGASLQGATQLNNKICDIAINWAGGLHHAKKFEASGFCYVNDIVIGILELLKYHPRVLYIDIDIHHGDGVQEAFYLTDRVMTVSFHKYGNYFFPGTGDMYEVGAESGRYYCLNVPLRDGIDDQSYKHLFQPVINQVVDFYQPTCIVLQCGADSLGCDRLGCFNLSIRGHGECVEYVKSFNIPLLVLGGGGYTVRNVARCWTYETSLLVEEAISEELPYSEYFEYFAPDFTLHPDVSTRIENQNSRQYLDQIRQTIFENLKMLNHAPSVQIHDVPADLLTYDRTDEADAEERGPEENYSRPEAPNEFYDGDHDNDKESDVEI
Chain of Cytochrome P450 2C19 (P33261 whole entry): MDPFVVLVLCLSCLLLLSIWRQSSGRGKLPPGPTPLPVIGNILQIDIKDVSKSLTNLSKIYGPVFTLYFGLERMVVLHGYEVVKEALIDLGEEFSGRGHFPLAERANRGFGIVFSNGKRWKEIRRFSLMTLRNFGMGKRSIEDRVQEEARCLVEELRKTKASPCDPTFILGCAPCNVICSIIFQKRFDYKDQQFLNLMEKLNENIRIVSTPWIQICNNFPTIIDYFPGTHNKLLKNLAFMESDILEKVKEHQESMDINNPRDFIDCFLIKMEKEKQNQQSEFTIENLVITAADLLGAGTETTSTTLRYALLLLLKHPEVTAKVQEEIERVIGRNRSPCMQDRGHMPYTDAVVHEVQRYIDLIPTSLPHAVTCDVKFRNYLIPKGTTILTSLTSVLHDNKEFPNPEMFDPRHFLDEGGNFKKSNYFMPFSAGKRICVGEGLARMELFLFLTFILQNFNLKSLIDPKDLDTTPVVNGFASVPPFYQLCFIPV
Chain of Histone deacetylase 1 (Homo sapiens) (Q13547 whole entry): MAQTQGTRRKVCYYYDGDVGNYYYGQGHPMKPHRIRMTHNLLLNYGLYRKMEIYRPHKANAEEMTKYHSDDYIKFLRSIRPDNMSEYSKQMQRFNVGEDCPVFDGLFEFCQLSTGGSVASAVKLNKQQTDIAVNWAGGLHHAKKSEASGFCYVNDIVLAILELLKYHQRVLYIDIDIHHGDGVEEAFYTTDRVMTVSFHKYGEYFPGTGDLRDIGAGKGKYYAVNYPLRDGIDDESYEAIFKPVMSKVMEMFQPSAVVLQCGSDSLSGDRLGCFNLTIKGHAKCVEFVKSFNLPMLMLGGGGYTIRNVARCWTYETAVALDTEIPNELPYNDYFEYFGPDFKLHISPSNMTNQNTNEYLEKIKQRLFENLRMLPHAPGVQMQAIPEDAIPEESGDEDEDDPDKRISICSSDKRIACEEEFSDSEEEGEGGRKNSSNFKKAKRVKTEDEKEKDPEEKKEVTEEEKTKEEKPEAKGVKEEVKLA
Chain of Cytochrome P450 2C9 (P11712 whole entry): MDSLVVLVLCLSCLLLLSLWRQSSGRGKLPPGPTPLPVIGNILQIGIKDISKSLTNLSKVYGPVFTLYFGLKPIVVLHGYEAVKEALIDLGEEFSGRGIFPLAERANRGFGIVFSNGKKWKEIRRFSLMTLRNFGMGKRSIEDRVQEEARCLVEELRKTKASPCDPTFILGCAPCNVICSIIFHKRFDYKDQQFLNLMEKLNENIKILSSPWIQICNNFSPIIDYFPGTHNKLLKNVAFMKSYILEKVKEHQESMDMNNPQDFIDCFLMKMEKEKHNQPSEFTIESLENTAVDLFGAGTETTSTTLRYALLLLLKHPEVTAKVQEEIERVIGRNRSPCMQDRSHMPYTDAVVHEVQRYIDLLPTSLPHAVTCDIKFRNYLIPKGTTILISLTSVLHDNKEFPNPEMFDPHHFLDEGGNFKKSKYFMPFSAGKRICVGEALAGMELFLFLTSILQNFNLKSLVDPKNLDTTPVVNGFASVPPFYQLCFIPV

For `COc1ccccc1-c1cc(-c2cccnc2)nc(N)n1`, the “inhibition (INH)” value at Cytochrome P450 2C19, against Cytochrome P450 1A2 and on Cytochrome P450 2C9 was “Active” throughout. Moreover, the inhibition entry in data set [1], in data set [2] and in data set [3] was “inactive” in each case.
